Measurements as given in ChEMBL document CHEMBL3817726, “Chemically Diverse Group I p21-Activated Kinase (PAK) Inhibitors Impart Acute Cardiovascular Toxicity with a Narrow Therapeutic Window” (J Med Chem, 2016).
pKi: −log10 of the molar value. ≈ marks a conversion by molar mass, not a printed value.

Legend:
Homo sapiens [1] = species: Homo sapiens; experiment: Selectivity for human recombinant N-terminal 6-His-tagged PAK1 kinase domain (249 to 545 residues) over human recombinant PAK4 kinase domain
Homo sapiens [2] = species: Homo sapiens; experiment: Selectivity for human recombinant N-terminal 6-His-tagged PAK1 kinase domain (249 to 545 residues) over LCK (unknown origin)
[3] = target: Serine/threonine-protein kinase PAK 1 (Homo sapiens, UniProt Q13153); experiment: Inhibition of human recombinant N-terminal 6-His-tagged PAK1 kinase domain (249 to 545 residues) expressed in Escherichia coli BL21(DE3) assessed as phosphorylation of coumarin labeled FRET peptide substrate at Ser/Thr19 preincubated for 10 mins followed by ATP addition measured after 60 mins by Z'-LYTE assay
[4] = target: Serine/threonine-protein kinase PAK 1/PAK 2 (Homo sapiens, UniProt Q13177+Q13153); experiment: Inhibition of PAK1/2 in human EBC1 cells assessed as phosphorylation of MEK1 at serine 298 after 2 hrs by HTRF assay; assay type: cell-based
[5] = Efflux ratio of permeability across basolateral to apical side over apical to basolateral side in MDCK cells at 10 uM after 60 mins; assay type: ADME, cell-based, Canis lupus familiaris; conditions: dog
[6] = Kinetic solubility of the compound at pH 7.4; assay type: physicochemical; conditions: buffer, read-out: Kinetic_solubility
[7] = Lipophilicity, log D of the compound at pH 7.4; assay type: physicochemical; conditions: buffer
[8] = Apparent permeability across apical to basolateral side in MDCK cells at 10 uM after 60 mins; assay type: ADME, cell-based, Canis lupus familiaris; conditions: dog
[9] = Apparent permeability across basolateral to apical side in MDCK cells at 10 uM after 60 mins; assay type: ADME, cell-based, Canis lupus familiaris; conditions: dog

Sequence of Serine/threonine-protein kinase PAK 1 (Q13153 whole entry, the tested form may be a part): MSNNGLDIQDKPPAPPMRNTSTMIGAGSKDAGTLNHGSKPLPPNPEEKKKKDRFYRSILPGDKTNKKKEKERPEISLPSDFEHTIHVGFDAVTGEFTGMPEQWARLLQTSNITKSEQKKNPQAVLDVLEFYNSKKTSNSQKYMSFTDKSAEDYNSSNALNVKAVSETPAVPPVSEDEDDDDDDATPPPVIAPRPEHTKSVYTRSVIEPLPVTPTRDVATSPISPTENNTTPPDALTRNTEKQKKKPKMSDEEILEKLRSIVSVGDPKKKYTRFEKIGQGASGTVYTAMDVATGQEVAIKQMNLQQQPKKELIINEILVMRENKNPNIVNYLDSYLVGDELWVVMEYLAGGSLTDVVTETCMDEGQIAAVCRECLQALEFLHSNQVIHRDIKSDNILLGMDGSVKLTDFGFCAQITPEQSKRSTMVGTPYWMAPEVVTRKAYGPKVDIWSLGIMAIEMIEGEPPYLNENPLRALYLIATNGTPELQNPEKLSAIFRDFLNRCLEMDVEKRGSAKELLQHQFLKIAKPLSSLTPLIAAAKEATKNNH

Selectivity ratio (Homo sapiens [1]) | Selectivity ratio (Homo sapiens [2]) | pKi [3] | IC50 [4] | efflux ratio at 1 h, 10 µM [5] | solubility kinetic [6] | logD [7] | Papp A→B at 1 h, 10 µM [8] | Papp B→A at 1 h, 10 µM [9] | SMILES
> 642 | 429 | 8.34 | – | – | – | – | – | – | CNc1ncc2cc(-c3ccc(-n4ccnc(C)c4=O)cc3Cl)c(=O)n(CCCN)c2n1
> 7.6 | 0.4 | 6.42 | – | – | – | – | – | – | CNc1ncc2cc(-c3ccccc3Cl)c(=O)n(CCCN)c2n1
449 | 53 | 8.48 | – | – | – | – | – | – | CNc1ncc2cc(-c3ccc(-c4cccc(C)n4)cc3Cl)c(=O)n(CCCN)c2n1
517 | 221 | 8.46 | 602 nM | 4.3 | 82 µM (≈ 37 µg/mL) | 0.05 | 0.1 ×10⁻⁶ cm/s | 0.33 ×10⁻⁶ cm/s | CNc1ncc2cc(-c3ccc(-n4cccc(C)c4=O)cc3Cl)c(=O)n(CCCN)c2n1

The next lines start with the molecule.

SMILES | Selectivity ratio (Homo sapiens [1]) | Selectivity ratio (Homo sapiens [2]) | pKi [3] | IC50 [4] | efflux ratio at 1 h, 10 µM [5] | solubility kinetic [6] | logD [7] | Papp A→B at 1 h, 10 µM [8] | Papp B→A at 1 h, 10 µM [9]
CNc1ncc2cc(-c3ccc(-n4cccc(C)c4=O)cc3Cl)c(=O)n(CCO)c2n1 | – | 63 | 7.77 | 930 nM | 2.8 | 15 µM (≈ 6.57 µg/mL) | 2.2 | 5.5 ×10⁻⁶ cm/s | –
CNc1ncc2cc(-c3ccc(-n4ccn(C)c4=O)cc3Cl)c(=O)n(CCCN)c2n1 | > 232 | 76 | 7.89 | – | – | – | – | – | –
CNc1ncc2cc(-c3ccc(-n4cccc(C)c4=O)cc3Cl)c(=O)n(CCOC)c2n1 | – | 38 | 7.89 | 450 nM | 0.5 | 80 µM (≈ 36.2 µg/mL) | 2.2 | 27 ×10⁻⁶ cm/s | –
CNc1ncc2cc(-c3ccc(-n4cccc(C)c4=O)cc3Cl)c(=O)n(CC3CCNCC3(F)F)c2n1 (racemic) | – | 20 | 8.57 | 78 nM | 1.3 | 115 µM (≈ 60.6 µg/mL) | 0.9 | 9.7 ×10⁻⁶ cm/s | –
CNc1ncc2cc(-c3ccc(-n4ccccc4=O)cc3Cl)c(=O)n(CCCN)c2n1 | > 82 | 86 | 7.44 | – | – | – | – | – | –
